From patent US7098210B2, “2h-pyridazine-3-one derivatives, pharmaceutical compositions containing the same and a process for the preparation of the active ingredient” (Egis Gyógyszergyár Rt., priority 2001, dated 2006)

Experiments:
male NMRI mice [1] = assay: Inhibition of apomorphine induced stereotypy on mouse; format: in vivo; conditions: apomorphine hydrochloride subcutaneously 60 min after treatment
Procedure: (§1) 1.2 Inhibition of Apomorphine Stereotypy and Climbing on Mouse
(§2) Male NMRI mice of 20 to 24 g body weight were used in the experiments. The animals were treated with the carrier and the test substance (20 ml of volume/kg body weight), respectively, then 30 minutes later, for habituation, they were placed into wire screen cages of 12 cm×12 cm×12 cm size which could be covered by plexyglass plates. After 30 minutes, […] of apomorphine hydrochloride were administered to the mice in a volume of 10 ml/kg, subcutaneously. The measurement of the stereotyped behaviour was begun at once after the treatment with apomorphine and continued for 25 minutes. The measurement was performed by means of a scale having five grades: • 0 point: normal behaviour corresponding to that of the control animals. • 1 point: permanent exploration activity, smelling or moving the head sideways from time to time. • 2 points: intensive continuous head movement or smelling, periodical exploration activity. • 3 points: licking, biting or gnawing from time to time, alternating with intensive smelling or head movement, locomotor activity lasting for a very short time. • 4 points: continuous intensive licking and/or gnawing in the same place without any locomotor or exploration activity.
Evaluation of stereotypy: in case of each animal, the highest point value obtained during the observation was taken into consideration and recorded, respectively. From the maximum point value, median was calculated for each group which was related to the median of the control group to calculate the effect in percentage.
(§3) In this case again chlorpromazine and clozapine were used as the reference substance.

male NMRI mice [2] = assay: Inhibition of apomorphine induced climbing on mouse; format: in vivo; conditions: 1 h, po., apomorphine hydrochloride subcutaneously 60 min after treatment
Procedure: as §1, §2
The posture when the mouse climbed up on the vertical wall with at least three legs was considered as climbing. The evaluation was performed in the last ten minutes of the observation on the basis yes/no (+/−).
The frequency was calculated in each group, then the effect was determined in percentage considering the result obtained for the control group as 100%.
as §3

mice = assay: Inhibition of hypermotility induced by phencyclidine (PCP); format: in vivo; conditions: Mus musculus, 1 h, sc., 3 mg/kg phencyclidine intraperitoneally 60 minutes after treatment, read-out: ID50 in mg/kg sc.
male Wistar rats [3] = assay: Inhibition of conditioned avoiding response (CAR), shuttle-box; format: in vivo, rat; conditions: compound given 1 hour before the series of experiment, 50% inhibition dose
Procedure: 1.1 Inhibition of Conditioned Avoiding Response (CAR)
The antipsychotic (neuroleptic) effect was measured by determining the inhibition of the learned conditioned avoiding reflex. At the beginning of teaching, male Wistar rats of 120 to 150 g body weight were used for the experiments. The experimental apparatus was the so called shuttle-box consisting of two rooms of 24 cm×24.5 cm×23 cm size separated from each other by a wall. The two rooms were connected by a gate of 6 cm×9 cm size. During the test, the task of the animals was to pass from one room to the other through the gate in case of a suitable warning stimulus, thus, avoiding the punishing (unconditioned) stimulus. The warning (conditioned) stimulus appeared in the room where the animal was staying. The conditioned stimulus (CS) was a gleaming (1 Hz) white light lasting for 15 seconds. The unconditioned stimulus (US) was a randomized electric shock to the sole with an intensity of 0.6 mA which appeared in the last 5 seconds of the conditioned stimulus. Passing from one room of the shuttle-box to the other during the conditioned stimulus was considered as avoiding response, while passing during the unconditioned stimulus was considered as escaping response. Both responses stopped the actual stimulus, and the trial was finished. The intertrial interval (ITI) was 15 seconds. 80 trials were performed on a day. The learning performance was measured as the ratio of the number of the successful avoiding responses to the total number of trials in percentage. The effect of the neuroleptics was determined on the animals showing a performance of at least 75% after the stabilization of the conditioned reflex. The test compounds were administered to the rats once weekly, 1 hour before the series of experiment. When evaluating the effect of the neuroleptics in each group, the performance of the animals on the day before was used as control. […] These values are given in Table I. Chlorpromazine [2-chloro-10-(3dimethylaminopropyl)phenothiazine] and clozapine [8-chloro-11-(4methyl-1-piperazinyl)-5H-dibenzo[b,e][1,4]diazepine] were used as the reference substance.

male Wistar rats [4] = assay: Cataleptogenous effect (method of Morpurgo); format: in vivo, rat; conditions: for Ratio Cat/CAR (MED/ID50): catalepsy MED divided by CAR ID50; for MED in mg/kg po.: rats, minimum effective dosis inducing catalepsy
Excerpt: The cataleptogenous effect was studied according to the method of Morpurgo [Morpurgo, C., Arch. Int. Pharmacodyn., 137, 84 ([…])]. Male Wistar rats of 220 to 240 g body weight have been used for the examinations. The fore-feet of the rats were placed on a gum stopper, one by one, and it was observed how the animal tolerated the unusual posture. The normal (non-cataleptic) animal removes the foot from the stopper during the measuring time of 10 seconds. If the animal keeps the foot on the stopper during the measuring time, this stiff state accompanied by myotonia is evaluated as catalepsy.

[5] = tested on: isolated right ventricular papillary muscle of the rabbit; assay: Cardiotoxic effect: effective refractory period (ERP) in vitro; conditions: for % change of ERP (1 μM): papillary muscle paced at 1 Hz, vs. baseline
Procedure: The cardiotoxic effect was determined in isolated right ventricular papillary muscle of the rabbit in vitro.
The modified method of Hackett et al., 1990 was used (Hacket, A. M., Mc Donald S. J., P., Schweingruber, F. and Gartwaite, S. M.: Simple in vitro method to characterize antiarrhythmic agents J. Pharmacol. Methods 23, 107–116, 1990).
The effective refractory period (ERP) was measured in isolated right ventricular papillary muscle of the rabbit in vitro.
The contractions of papillary muscle preparations obtained from New Zealand rabbits weighing 2.5–3.2 kg were evaluated. The contractions (isometrically paced at 1 Hz) were recorded by 4-channel Hugo Sachs apparatus. The effects of the test compounds or references were measured in 1 μM concentration.

melting point [°C] | SMILES | Inhibition of stereotypy, ID50 in mg/kg po. (male NMRI mice [1]) [mg/kg] | ED50 (male NMRI mice [2]) [mg/kg] | ED50 (mice) [mg/kg] | Conditioned reflex, ID50 in mg/kg (male Wistar rats [3]) | Ratio Cat/CAR (MED/ID50) (male Wistar rats [4]) | MED in mg/kg po. (male Wistar rats [4]) [mg/kg] | % change of ERP (1 μM) [5] [%] | cardiotoxic effect (significant prolongation of ERP) ([5]; 1 μM concentration)
108 to 109 | Cn1ncc(Cl)c(NCCN2CCC(c3noc4cc(F)ccc34)CC2)c1=O [Example 1, 4-{2-[4-(6-fluoro-1,2-benzisoxazole-3-yl)piperidine-1-yl]ethyl-amino}-5-chloro-2-methyl-2H-pyridazine-3-one] | 0.4 | 0.3 | 0.4 | 0.7 mg/kg |  |  |  | 
117 to 119 | Cn1ncc(Cl)c(NCCCN2CCC(c3noc4cc(F)ccc34)CC2)c1=O [Example 2, 4-{3-[4-(6-fluoro-1,2-benzisoxazole-3-yl)piperidine-1-yl]propyl-amino}-5-chloro-2-methyl-2H-pyridazine-3-one] | 2.0 | 0.6 |  | 5.8 mg/kg |  |  |  | 
198 to 200 | O=c1[nH]ncc(Cl)c1NCCCN1CCC(c2noc3cc(F)ccc23)CC1 [Example 3, 4-{3-[4-(6-fluoro-1,2-benzisoxazole-3-yl)piperidine-1-yl]propyl-amino}-5-chloro-2H-pyridazine-3-one] | 1.2 | 0.8 |  |  |  |  |  | 
200 to 202 | Cn1ncc(NCCCN2CCC(c3noc4cc(F)ccc34)CC2)c(Cl)c1=O [Example 5, 4-chloro-5-{3-[4-(6-fluoro-1,2-benzisoxazole-3-yl)piperidine-1-yl]propyl-amino}-2-methyl-2H-pyridazine-3-one] | 2.0 | 0.6 | 0.46 | ≦3.0 mg/kg | >3 | 10 | 5.3 ± 0.4 | 
200 to 202 | Cn1ncc(NCCN2CCC(c3noc4cc(F)ccc34)CC2)cc1=O [Example 6, 5-{2-[4-(6-fluoro-1,2-benzisoxazole-3-yl)piperidine-1-yl]ethyl-amino}-2-methyl-2H-pyridazine-3-one] |  |  | 0.9 |  |  | >30 | 6.1 ± 1.9 | 
163 to 165 | Cn1ncc(NCCCN2CCC(c3noc4cc(F)ccc34)CC2)cc1=O [Example 7, 5-{3-[4-(6-fluoro-1,2-benzisoxazole-3-yl)piperidine-1-yl]propyl-amino}-2-methyl-2H-pyridazine-3-one] |  |  | 0.4 |  |  | ~30 |  | 
229 to 231 | O=c1[nH]ncc(NCCN2CCC(c3noc4cc(F)ccc34)CC2)c1Cl [Example 8, 5-{2-[4-(6-fluoro-1,2-benzisoxazole-3-yl)piperidine-1-yl]ethyl-amino}-4-chloro-2H-pyridazine-3-one] |  |  | 0.2 |  |  | ~10 | 1.5 ± 1.5 | 
97 to 99 | O=c1cc(NCCN2CCC(c3noc4cc(F)ccc34)CC2)cn[nH]1 [Example 9, 5-{2-[4-(6-fluoro-1,2-benzisoxazole-3-yl)piperidine-1-yl]ethyl-amino}-2H-pyridazine-3-one] |  |  | 1.4 |  |  | >10 | 0.4 ± 1.1 | 

Continued, compound first:

SMILES | melting point [°C] | Inhibition of stereotypy, ID50 in mg/kg po. (male NMRI mice [1]) [mg/kg] | ED50 (male NMRI mice [2]) [mg/kg] | ED50 (mice) [mg/kg] | Conditioned reflex, ID50 in mg/kg (male Wistar rats [3]) | Ratio Cat/CAR (MED/ID50) (male Wistar rats [4]) | MED in mg/kg po. (male Wistar rats [4]) [mg/kg] | % change of ERP (1 μM) [5] [%] | cardiotoxic effect (significant prolongation of ERP) ([5]; 1 μM concentration)
Cn1ncc(NCCN2CCC(c3noc4cc(F)ccc34)CC2)c(Cl)c1=O [Example 4, 4-chloro-5-{2-[4-(6-fluoro-1,2-benzisoxazole-3-yl)piperidine-1-yl]ethyl-amino}-2-methyl-2H-pyridazine-3-one] |  | 0.2 | 0.06 | 0.07 | 0.3 to 0.5 mg/kg | about 6 | 3 | 11.1 ± 1.7 | 
COc1cc(C(C)=O)ccc1OCCCN1CCC(c2noc3cc(F)ccc23)CC1 [Iloperidone, reference compound] |  |  |  |  |  |  |  | 31.9 ± 7.8 | considerable and significant cardiotoxic potential
CN(C)CCCN1c2ccccc2Sc2ccc(Cl)cc21 [chlorpromazine, 2-chloro-10-(3dimethylaminopropyl)phenothiazine, reference compound] |  | 6.8 | 6.1 |  | 13.2 mg/kg |  |  |  | 
CN1CCN(C2=Nc3cc(Cl)ccc3Nc3ccccc32)CC1 [clozapine, 8-chloro-11-(4methyl-1-piperazinyl)-5H-dibenzo[b,e][1,4]diazepine, reference compound] |  | 35.4 | 11.8 | 2.9 | 21.3 mg/kg |  |  |  | 
O=C(CCCN1CCC(O)(c2ccc(Cl)cc2)CC1)c1ccc(F)cc1 [haloperidol, 4-(4-chlorophenyl-4-hydroxy-1-piperidinyl)-1-(4-fluorophenyl)-1-butanone, reference compound] |  |  |  | 1.2 |  |  | 1 |  | 
